Laboratory results published in patent publication US20080051466A1, “Isoalpha acid based protein kinase modulation cancer treatment” (Metaproteomics, LLC, priority 2006, published 2008).

Key:
Experiment in all cases: KinaseProfiler Assay
PKA(b) = PKA(b) (Bos taurus, UniProt P00517); assay type: biochemical, human; conditions: read-out: PKA(b), % of Control
MINK = MINK (Homo sapiens, UniProt Q8N4C8); assay type: biochemical; conditions: read-out: MINK, % of Control
Hck = Hck (Homo sapiens, UniProt P08631); assay type: biochemical; conditions: read-out: Hck, % of Control
FGFR2 = FGFR2 (Homo sapiens, UniProt P21802); assay type: biochemical; conditions: read-out: FGFR2, % of Control
Aurora-A = target: T1, Aurora-A (Homo sapiens, UniProt O14965); assay type: biochemical; conditions: read-out: Aurora-A, % of Control
T1 sequence (O14965 1-403): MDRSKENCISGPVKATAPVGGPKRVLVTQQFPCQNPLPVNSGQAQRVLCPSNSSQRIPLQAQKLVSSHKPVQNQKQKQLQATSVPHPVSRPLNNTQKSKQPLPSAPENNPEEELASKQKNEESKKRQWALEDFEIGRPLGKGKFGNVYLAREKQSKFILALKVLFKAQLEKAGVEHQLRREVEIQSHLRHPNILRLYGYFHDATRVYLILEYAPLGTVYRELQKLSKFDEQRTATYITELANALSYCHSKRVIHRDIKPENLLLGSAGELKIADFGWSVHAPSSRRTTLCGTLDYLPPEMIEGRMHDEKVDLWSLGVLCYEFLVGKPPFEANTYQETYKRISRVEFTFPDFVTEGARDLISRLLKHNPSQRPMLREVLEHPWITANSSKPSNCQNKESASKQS

PKCα = PKCα (Homo sapiens, UniProt P17252); assay type: biochemical; conditions: read-out: PKCα, % of Control
Tie2 = Tie2 (Homo sapiens, UniProt Q02763); assay type: biochemical; conditions: 50 ug/ml; read-out: Tie2, % of Control
ZIPK = ZIPK (Homo sapiens, UniProt O43293); assay type: biochemical; conditions: read-out: ZIPK, % of Control
MSK2 = MSK2 (Homo sapiens, UniProt O75676); assay type: biochemical; conditions: read-out: MSK2, % of Control
cKit(D816H) = cKit(D816H) (Homo sapiens, UniProt P10721, D816H); assay type: biochemical; conditions: read-out: cKit(D816H), % of Control
Fes = Fes (Homo sapiens, UniProt P07332); assay type: biochemical; conditions: read-out: Fes, % of Control
CHK2 = CHK2 (Homo sapiens, UniProt O96017); assay type: biochemical; conditions: read-out: CHK2, % of Control
Rsk2 = Rsk2 (Homo sapiens, UniProt P51812); assay type: biochemical; conditions: read-out: Rsk2, % of Control
ErbB4 = ErbB4 (Homo sapiens, UniProt Q15303); assay type: biochemical; conditions: read-out: ErbB4, % of Control
IGF-1R = IGF-1R (Homo sapiens, UniProt P08069); assay type: biochemical; conditions: read-out: IGF-1R, % of Control
CDK3/cyclinE = CDK3/cyclinE (Homo sapiens, UniProt Q00526); assay type: biochemical; conditions: 50 ug/ml; read-out: CDK3/cyclinE, % of Control
CK1γ1 = CK1γ1 (Homo sapiens, UniProt Q9HCP0); assay type: biochemical; conditions: read-out: CK1γ1, % of Control
MAPKAP-K3 = MAPKAP-K3 (Homo sapiens, UniProt Q16644); assay type: biochemical; conditions: read-out: MAPKAP-K3, % of Control
p70S6K = p70S6K (Homo sapiens, UniProt P23443); assay type: biochemical; conditions: read-out: p70S6K, % of Control
MAPK1 = MAPK1 (Homo sapiens, UniProt P27361); assay type: biochemical; conditions: read-out: MAPK1, % of Control
Sequence of MAPK1 (P27361 whole entry): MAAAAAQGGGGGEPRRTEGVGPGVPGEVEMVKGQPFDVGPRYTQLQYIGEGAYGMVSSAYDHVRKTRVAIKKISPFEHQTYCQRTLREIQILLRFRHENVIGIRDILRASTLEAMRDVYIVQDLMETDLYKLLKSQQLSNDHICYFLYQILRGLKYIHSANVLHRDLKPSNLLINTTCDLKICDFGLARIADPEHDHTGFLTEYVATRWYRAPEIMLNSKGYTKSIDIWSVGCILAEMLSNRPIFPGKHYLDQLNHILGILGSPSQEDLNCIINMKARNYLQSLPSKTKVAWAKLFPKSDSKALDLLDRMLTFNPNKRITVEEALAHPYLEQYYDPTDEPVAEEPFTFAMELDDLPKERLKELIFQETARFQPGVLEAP

Sequence of MINK (Q8N4C8 whole entry): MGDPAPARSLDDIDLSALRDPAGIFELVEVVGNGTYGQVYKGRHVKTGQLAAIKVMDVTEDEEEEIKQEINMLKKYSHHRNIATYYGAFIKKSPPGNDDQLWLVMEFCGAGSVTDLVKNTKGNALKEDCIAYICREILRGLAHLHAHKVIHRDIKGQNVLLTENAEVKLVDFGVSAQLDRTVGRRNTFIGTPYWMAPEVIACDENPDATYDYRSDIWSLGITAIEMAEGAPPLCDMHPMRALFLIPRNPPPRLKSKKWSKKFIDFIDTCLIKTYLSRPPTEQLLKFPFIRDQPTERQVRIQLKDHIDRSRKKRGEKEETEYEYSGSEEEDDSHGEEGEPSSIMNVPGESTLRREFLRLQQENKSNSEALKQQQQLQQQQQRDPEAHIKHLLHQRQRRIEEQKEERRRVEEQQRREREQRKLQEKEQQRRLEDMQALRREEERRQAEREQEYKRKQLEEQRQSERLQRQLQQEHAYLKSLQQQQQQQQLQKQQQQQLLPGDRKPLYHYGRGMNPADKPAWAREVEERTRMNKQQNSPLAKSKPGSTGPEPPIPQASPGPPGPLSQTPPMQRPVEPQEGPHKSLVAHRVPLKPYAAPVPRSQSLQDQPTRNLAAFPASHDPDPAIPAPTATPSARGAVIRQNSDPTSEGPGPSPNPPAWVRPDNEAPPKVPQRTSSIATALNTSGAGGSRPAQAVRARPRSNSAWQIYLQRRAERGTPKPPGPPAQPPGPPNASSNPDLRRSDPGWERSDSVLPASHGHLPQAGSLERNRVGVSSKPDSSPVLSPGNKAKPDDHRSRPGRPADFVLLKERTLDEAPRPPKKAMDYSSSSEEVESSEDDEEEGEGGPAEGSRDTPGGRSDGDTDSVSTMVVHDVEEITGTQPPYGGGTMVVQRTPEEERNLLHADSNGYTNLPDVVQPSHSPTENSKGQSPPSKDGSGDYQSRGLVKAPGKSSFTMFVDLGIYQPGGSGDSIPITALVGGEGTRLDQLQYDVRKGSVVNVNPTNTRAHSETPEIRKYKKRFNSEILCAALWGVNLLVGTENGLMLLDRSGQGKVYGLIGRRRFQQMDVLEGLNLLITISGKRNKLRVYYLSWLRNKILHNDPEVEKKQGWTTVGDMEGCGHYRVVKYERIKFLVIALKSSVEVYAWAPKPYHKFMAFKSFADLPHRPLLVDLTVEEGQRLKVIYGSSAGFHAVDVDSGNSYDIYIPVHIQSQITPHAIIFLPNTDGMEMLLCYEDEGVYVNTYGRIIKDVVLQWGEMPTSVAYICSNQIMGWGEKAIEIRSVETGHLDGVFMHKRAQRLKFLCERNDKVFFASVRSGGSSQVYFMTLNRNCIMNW
Sequence of ZIPK (O43293 whole entry): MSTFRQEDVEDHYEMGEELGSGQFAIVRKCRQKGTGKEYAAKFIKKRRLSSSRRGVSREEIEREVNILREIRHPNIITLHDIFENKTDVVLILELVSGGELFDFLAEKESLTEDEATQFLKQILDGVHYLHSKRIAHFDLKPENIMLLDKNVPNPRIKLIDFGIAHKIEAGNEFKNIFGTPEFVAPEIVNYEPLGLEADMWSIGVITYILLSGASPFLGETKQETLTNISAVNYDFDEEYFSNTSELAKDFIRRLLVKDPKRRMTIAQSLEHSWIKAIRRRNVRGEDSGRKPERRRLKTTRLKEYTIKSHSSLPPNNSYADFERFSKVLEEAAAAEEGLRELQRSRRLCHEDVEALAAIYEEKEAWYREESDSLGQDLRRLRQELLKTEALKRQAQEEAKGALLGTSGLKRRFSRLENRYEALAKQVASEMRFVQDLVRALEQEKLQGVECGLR
Sequence of CK1γ1 (Q9HCP0 whole entry): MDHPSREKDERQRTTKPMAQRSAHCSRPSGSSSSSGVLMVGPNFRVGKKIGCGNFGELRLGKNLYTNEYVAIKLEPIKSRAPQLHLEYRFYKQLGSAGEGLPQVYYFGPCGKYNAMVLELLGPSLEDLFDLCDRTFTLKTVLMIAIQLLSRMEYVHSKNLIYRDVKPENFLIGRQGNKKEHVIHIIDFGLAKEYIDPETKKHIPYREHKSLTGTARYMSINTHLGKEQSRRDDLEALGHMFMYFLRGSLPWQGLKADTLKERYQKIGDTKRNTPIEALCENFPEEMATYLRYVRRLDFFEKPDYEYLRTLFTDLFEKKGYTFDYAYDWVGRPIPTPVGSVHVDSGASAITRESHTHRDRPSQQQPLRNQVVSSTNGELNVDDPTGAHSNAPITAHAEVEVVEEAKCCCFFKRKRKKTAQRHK
Sequence of MSK2 (O75676 whole entry): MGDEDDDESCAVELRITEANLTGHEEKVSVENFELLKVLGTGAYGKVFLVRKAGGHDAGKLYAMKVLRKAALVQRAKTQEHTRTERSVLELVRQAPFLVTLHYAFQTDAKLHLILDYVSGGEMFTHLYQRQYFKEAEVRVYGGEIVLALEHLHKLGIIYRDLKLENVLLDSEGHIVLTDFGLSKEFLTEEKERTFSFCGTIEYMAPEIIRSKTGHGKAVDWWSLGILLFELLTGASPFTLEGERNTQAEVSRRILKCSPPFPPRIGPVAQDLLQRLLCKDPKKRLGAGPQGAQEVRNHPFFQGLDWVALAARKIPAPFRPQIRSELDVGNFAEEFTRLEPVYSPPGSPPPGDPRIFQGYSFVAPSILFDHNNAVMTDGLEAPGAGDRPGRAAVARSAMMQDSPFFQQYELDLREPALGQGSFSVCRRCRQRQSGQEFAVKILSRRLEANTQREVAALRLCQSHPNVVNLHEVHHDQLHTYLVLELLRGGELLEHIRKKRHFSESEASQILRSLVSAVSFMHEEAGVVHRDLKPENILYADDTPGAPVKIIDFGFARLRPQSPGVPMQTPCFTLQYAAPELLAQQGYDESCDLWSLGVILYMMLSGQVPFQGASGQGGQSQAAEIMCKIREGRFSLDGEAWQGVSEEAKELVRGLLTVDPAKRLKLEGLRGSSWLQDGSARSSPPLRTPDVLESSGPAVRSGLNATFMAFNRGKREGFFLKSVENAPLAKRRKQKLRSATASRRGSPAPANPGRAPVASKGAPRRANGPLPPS
Sequence of cKit(D816H) (P10721 26-976 D816H): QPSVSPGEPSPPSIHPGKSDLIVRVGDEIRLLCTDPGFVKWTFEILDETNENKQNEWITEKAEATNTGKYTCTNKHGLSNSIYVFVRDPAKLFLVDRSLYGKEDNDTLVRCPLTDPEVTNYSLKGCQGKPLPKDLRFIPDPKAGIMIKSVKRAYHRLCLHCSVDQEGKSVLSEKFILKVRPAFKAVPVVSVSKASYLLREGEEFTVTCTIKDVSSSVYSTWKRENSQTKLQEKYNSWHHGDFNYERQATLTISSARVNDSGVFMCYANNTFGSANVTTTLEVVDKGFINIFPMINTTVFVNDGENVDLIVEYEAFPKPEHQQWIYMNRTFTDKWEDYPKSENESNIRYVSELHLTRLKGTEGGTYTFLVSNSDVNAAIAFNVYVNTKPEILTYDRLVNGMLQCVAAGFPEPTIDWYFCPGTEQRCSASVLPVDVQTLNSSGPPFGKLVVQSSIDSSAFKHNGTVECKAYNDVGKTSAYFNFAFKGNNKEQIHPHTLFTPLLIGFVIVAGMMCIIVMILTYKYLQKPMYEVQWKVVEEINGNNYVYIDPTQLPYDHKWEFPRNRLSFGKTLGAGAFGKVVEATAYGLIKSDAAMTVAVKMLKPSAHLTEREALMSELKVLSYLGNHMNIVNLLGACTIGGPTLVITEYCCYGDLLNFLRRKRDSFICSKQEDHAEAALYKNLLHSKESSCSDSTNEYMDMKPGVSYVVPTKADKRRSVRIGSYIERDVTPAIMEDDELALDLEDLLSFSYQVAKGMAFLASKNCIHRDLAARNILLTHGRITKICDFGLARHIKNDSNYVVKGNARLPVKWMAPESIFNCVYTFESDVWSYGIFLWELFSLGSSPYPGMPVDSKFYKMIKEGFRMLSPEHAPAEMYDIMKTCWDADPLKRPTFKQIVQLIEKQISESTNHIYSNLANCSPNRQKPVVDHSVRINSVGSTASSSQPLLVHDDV
Sequence of Rsk2 (P51812 whole entry): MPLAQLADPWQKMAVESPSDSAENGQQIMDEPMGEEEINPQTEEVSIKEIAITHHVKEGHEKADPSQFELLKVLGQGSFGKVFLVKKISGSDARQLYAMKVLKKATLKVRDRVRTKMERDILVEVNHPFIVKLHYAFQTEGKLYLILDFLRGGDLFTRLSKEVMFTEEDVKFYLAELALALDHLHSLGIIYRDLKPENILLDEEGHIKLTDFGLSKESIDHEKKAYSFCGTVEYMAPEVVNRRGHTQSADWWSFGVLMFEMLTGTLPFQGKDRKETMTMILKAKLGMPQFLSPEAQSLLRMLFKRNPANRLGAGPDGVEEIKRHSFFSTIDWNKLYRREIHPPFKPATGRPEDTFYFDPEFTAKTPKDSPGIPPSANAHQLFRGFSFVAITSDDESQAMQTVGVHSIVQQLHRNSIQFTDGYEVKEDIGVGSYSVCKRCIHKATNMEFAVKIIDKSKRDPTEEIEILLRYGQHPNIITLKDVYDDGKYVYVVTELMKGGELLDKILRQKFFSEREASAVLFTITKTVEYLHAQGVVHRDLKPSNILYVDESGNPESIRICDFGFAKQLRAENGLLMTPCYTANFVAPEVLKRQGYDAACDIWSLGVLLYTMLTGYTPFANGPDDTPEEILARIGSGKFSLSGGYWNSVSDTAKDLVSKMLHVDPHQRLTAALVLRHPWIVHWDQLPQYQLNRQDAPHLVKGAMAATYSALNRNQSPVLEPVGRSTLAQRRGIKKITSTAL

- remaining activity at 1 µg/mL (PKA(b); 1 ug/ml): 137%
- remaining activity at 25 µg/mL (PKA(b); 25 ug/ml): 33%
- remaining activity at 1 µg/mL (MINK; 1 ug/ml): 42%
- remaining activity at 5 µg/mL (MINK; 5 ug/ml): 10%
- remaining activity at 25 µg/mL (MINK; 25 ug/ml): 5%
- remaining activity at 50 µg/mL (MINK; 50 ug/ml): 7%
- remaining activity at 1 µg/mL (Hck; 1 ug/ml): 85%
- remaining activity at 25 µg/mL (Hck; 25 ug/ml): 17%
- remaining activity at 1 µg/mL (FGFR2; 1 ug/ml): 116%
- remaining activity at 5 µg/mL (FGFR2; 5 ug/ml): 89%
- remaining activity at 25 µg/mL (FGFR2; 25 ug/ml): 36%
- remaining activity at 5 µg/mL (Aurora-A; 5 ug/ml): 27%
- remaining activity at 25 µg/mL (Aurora-A; 25 ug/ml): 3%
- remaining activity at 50 µg/mL (Aurora-A; 50 ug/ml): 8%
- remaining activity at 1 µg/mL (PKCα; 1 ug/ml): 100%
- remaining activity at 5 µg/mL (PKCα; 5 ug/ml): 100%
- remaining activity at 25 µg/mL (PKCα; 25 ug/ml): 75%
- remaining activity at 50 µg/mL (PKCα; 50 ug/ml): 83%
- remaining activity at 50 µg/mL (Tie2): 35%
- remaining activity at 1 µg/mL (ZIPK; 1 ug/ml): 115%
- remaining activity at 5 µg/mL (ZIPK; 5 ug/ml): 74%
- remaining activity at 25 µg/mL (ZIPK; 25 ug/ml): 20%
- remaining activity at 50 µg/mL (ZIPK; 50 ug/ml): 70%
- remaining activity at 1 µg/mL (MSK2; 1 ug/ml): 126%
- remaining activity at 5 µg/mL (MSK2; 5 ug/ml): 61%
- remaining activity at 25 µg/mL (MSK2; 25 ug/ml): 8%
- remaining activity at 50 µg/mL (MSK2; 50 ug/ml): 19%
- remaining activity at 1 µg/mL (cKit(D816H); 1 ug/ml): 94%
- remaining activity at 5 µg/mL (cKit(D816H); 5 ug/ml): 45%
- remaining activity at 25 µg/mL (cKit(D816H); 25 ug/ml): 14%
- remaining activity at 1 µg/mL (Fes; 1 ug/ml): 131%
- remaining activity at 5 µg/mL (Fes; 5 ug/ml): 106%
- remaining activity at 25 µg/mL (Fes; 25 ug/ml): 102%
- remaining activity at 50 µg/mL (Fes; 50 ug/ml): 26%
- remaining activity at 1 µg/mL (CHK2; 1 ug/ml): 25%
- remaining activity at 5 µg/mL (CHK2; 5 ug/ml): 5%
- remaining activity at 25 µg/mL (CHK2; 25 ug/ml): 3%
- remaining activity at 1 µg/mL (Rsk2; 1 ug/ml): 96%
- remaining activity at 5 µg/mL (Rsk2; 5 ug/ml): 43%
- remaining activity at 25 µg/mL (Rsk2; 25 ug/ml): 3%
- remaining activity at 1 µg/mL (ErbB4; 1 ug/ml): 132%
- remaining activity at 5 µg/mL (ErbB4; 5 ug/ml): 85%
- remaining activity at 25 µg/mL (ErbB4; 25 ug/ml): 52%
- remaining activity at 50 µg/mL (ErbB4; 50 ug/ml): 27%
- remaining activity at 25 µg/mL (IGF-1R; 25 ug/ml): 129%
- remaining activity at 50 µg/mL (IGF-1R; 50 ug/ml): 139%
- remaining activity at 50 µg/mL (CDK3/cyclinE): 8%
- remaining activity at 1 µg/mL (CK1γ1; 1 ug/ml): 101%
- remaining activity at 5 µg/mL (CK1γ1; 5 ug/ml): 79%
- remaining activity at 25 µg/mL (CK1γ1; 25 ug/ml): 50%
- remaining activity at 50 µg/mL (CK1γ1; 50 ug/ml): 26%
- remaining activity at 25 µg/mL (MAPKAP-K3; 25 ug/ml): 17%
- remaining activity at 50 µg/mL (MAPKAP-K3; 50 ug/ml): 7%
- remaining activity at 1 µg/mL (p70S6K; 1 ug/ml): 94%
- remaining activity at 5 µg/mL (p70S6K; 5 ug/ml): 48%
- remaining activity at 25 µg/mL (p70S6K; 25 ug/ml): 19%
- remaining activity at 50 µg/mL (p70S6K; 50 ug/ml): 7%
- remaining activity at 5 µg/mL (MAPK1; 5 ug/ml): 64%
- remaining activity at 25 µg/mL (MAPK1; 25 ug/ml): 19%
- remaining activity at 50 µg/mL (MAPK1; 50 ug/ml): 17%
Structure (SMILES): COc1cc(O)c(CC=C(C)C)c(O)c1C(=O)/C=C/c1ccc(O)cc1 [Xanthohumol, xanthohumol]
